Measured values reported in patent US7462600B2, “Macrolides” (Pfizer Inc, priority 2004, dated 2008).
In brackets after ≈: the same amount, converted by molar mass. Like-named read-outs stand apart in the source and are kept apart here.

Legend:
Format in all cases: cell-based
[1] = tested on: Haemophilus influenzae 1218; assay: MIC, microtiter broth dilution (NCCLS M100-S14), H. influenzae 1218 (susceptible)
Description: (§1) The assay described herein includes a panel of bacterial strains assembled to include a variety of target pathogenic species, including representatives of macrolide resistance mechanisms that have been characterized. In many cases, both the macrolide-susceptible parent strain and the macrolide-resistant strain derived from it are available to provide a more accurate assessment of the compound's ability to circumvent the resistance mechanism. The assay is performed in microtiter trays and interpreted according to Performance Standards for Antimicrobial Susceptibility Testing; 14th Informational Supplement (M100-S14), published by The National Committee for Clinical Laboratory Standards (NCCLS) guidelines; the MIC is used to compare strains. Compounds are initially dissolved in DMSO as 40 mg/ml stock solutions.

[2] = tested on: Streptococcus pneumoniae 1175; conditions: microtiter broth dilution
Description: as §1

[3] = tested on: Streptococcus pneumoniae 1095; conditions: microtiter broth dilution
Description: as §1

[4] = tested on: Streptococcus pneumoniae 1016; assay: MIC, microtiter broth dilution (NCCLS M100-S14), S. pneumoniae 1016 (susceptible)
Description: as §1

[5] = tested on: Streptococcus pyogenes 1079; assay: MIC, microtiter broth dilution (NCCLS M100-S14), S. pyogenes 1079 (ermB)
Description: as §1

[6] = H. influenzae 1218 (susceptible)
[7] = S. pneumoniae 1016 (susceptible)

Row | SMILES | MIC H. influenzae 1218 ([1]; Haemophilus influenzae 1218) [µg/mL] | MIC S. pneumo. 1175 ([2]; Streptococcus pneumoniae 1175) [µg/mL] | MIC S. pneumo. 1095 ([3]; Streptococcus pneumoniae 1095) [µg/mL] | MIC S. pneumo. 1016 ([4]; Streptococcus pneumoniae 1016) [µg/mL] | MIC S. pyogenes 1079 ([5]; Streptococcus pyogenes 1079) [µg/mL] | MIC H. influenzae 1218 [1, 6] [µg/mL] | MIC S. pneumo. 1175 ([2]; S. pneumoniae 1175 (mefA)) [µg/mL] | MIC S. pneumo. 1095 ([3]; S. pneumoniae 1095 (ermB)) [µg/mL] | MIC S. pneumo. 1016 [4, 7] [µg/mL] | MIC S. pyogenes 1079 ([5]; S. pyogenes 1079 (ermB)) [µg/mL]
1 | CCC1OC(=O)C(C)C(=O)C(C)C(OC2OC(C)CC(N(C)C)C2O)C(C)(OC)CC(C)C(=O)C(C)C2N(C3CN(Cc4ccnc5ncccc45)C3)C(=O)OC12C (centres unmarked) [Example 1.20, 3-descladinosyl-11,12-dideoxy-6-O-methyl-3-oxo-12,11-(oxycarbonyl-(1-((1,8-naphthyridin-4-yl)-methyl)-azetidin-3-yl)-imino)erythromycin A] | 0.25 (≈ 0.309 µM) | 0.12 (≈ 0.148 µM) | <0.06 | <0.06 | 1 (≈ 1.23 µM) |  |  |  |  | 
2 | CCC1OC(=O)C(C)C(=O)C(C)C(OC2OC(C)CC(N(C)C)C2O)C(C)(OC)CC(C)C(=O)C(C)C2N(CC3CN(Cc4cccnc4)C3)C(=O)OC12C (centres unmarked) [4.04] | 0.5 (≈ 0.647 µM) | 0.25 (≈ 0.323 µM) | 16 (≈ 20.7 µM) | <0.06 | >64.00 |  |  |  |  | 
3 | CCC1OC(=O)C(C)C(=O)C(C)C(OC2OC(C)CC(N(C)C)C2O)C(C)(OC)CC(C)C(=O)C(C)C2N(CC3CCCN3C(=O)c3cnc4ccccc4c3)C(=O)OC12C (centres unmarked) [12.05] |  |  |  |  |  | 4 (≈ 4.7 µM) | 1 (≈ 1.18 µM) | 1 (≈ 1.18 µM) | <0.06 | >64.00
4 | CCC1OC(=O)C(C)C(=O)C(C)C(OC2OC(C)CC(N(C)C)C2O)C(C)(OC)CC(C)C(=O)C(C)C2N(CC3CCCN3C(=O)c3cc4ccccc4cn3)C(=O)OC12C.O=CO (centres unmarked) [10.09] |  |  |  |  |  | 2 | 1 | <0.06 | <0.06 | >64.00
5 | CCC1OC(=O)C(C)C(=O)C(C)C(OC2OC(C)CC(N(C)C)C2O)C(C)(OC)CC(C)C(=O)C(C)C2N(CC3CN(Cc4n[nH]c5cc(Cl)ccc45)C3)C(=O)OC12C (centres unmarked) [4.23] | <0.06 | 0.12 (≈ 0.142 µM) | 4 (≈ 4.73 µM) | <0.06 | 16 (≈ 18.9 µM) |  |  |  |  | 
6 | CCC1OC(=O)C(C)C(=O)C(C)C(OC2OC(C)CC(N(C)C)C2O)C(C)(OC)CC(C)C(=O)C(C)C2N(CC3CCCN3C(=O)c3cnc4ccccc4n3)C(=O)OC12C.O=CO (centres unmarked) [10.21] |  |  |  |  |  | 2 | 0.12 | <0.06 | <0.06 | >64.00
7 | CCC1OC(=O)C(C)C(=O)C(C)C(OC2OC(C)CC(N(C)C)C2O)C(C)(OC)CC(C)C(=O)C(C)C2N(CC3CCCN3C(=O)c3ccnc4ccccc34)C(=O)OC12C.O=CO (centres unmarked) [10.10] |  |  |  |  |  | 4 | 1 | <0.06 | <0.06 | >64.00
8 | CCC1OC(=O)C(C)C(=O)C(C)C(OC2OC(C)CC(N(C)C)C2O)C(C)(OC)CC(C)C(=O)C(C)C2N(CC3CCN(C(=O)c4ccc5ncccc5c4)C3)C(=O)OC12C (centres unmarked) [11.18] |  |  |  |  |  | 2 (≈ 2.35 µM) | 2 (≈ 2.35 µM) | 8 (≈ 9.4 µM) | <0.06 | >64.00
9 | CCC1OC(=O)C(C)C(=O)C(C)C(OC2OC(C)CC(N(C)C)C2O)C(C)(OC)CC(C)C(=O)C(C)C2N(CC3CCCN3C(=O)c3ccc(-n4cccn4)nc3)C(=O)OC12C.O=CO (centres unmarked) [10.13] |  |  |  |  |  | 16 | 0.5 | 0.5 | <0.06 | >64.00
10 | CCC1OC(=O)C(C)C(=O)C(C)C(OC2OC(C)CC(N(C)C)C2O)C(C)(OC)CC(C)C(=O)C(C)C2N(CC3CCCN3C(=O)c3cc4cccnc4nc3C(F)(F)F)C(=O)OC12C (centres unmarked) [10.40] |  |  |  |  |  | 2 (≈ 2.17 µM) | <0.06 | <0.06 | <0.06 | >64.00
11 | CCC1OC(=O)C(C)C(=O)C(C)C(OC2OC(C)CC(N(C)C)C2O)C(C)(OC)CC(C)C(=O)C(C)C2N(C3CN(S(=O)(=O)c4ccc5cn[nH]c5c4)C3)C(=O)OC12C (centres unmarked) [Example 3.85, 3-descladinosyl-11,12-dideoxy-6-O-methyl-3-oxo-12,11-(oxycarbonyl-(1-(1H-indazole-6-sulfonyl)-azetidin-3-yl)-imino)-erythromycin A] | 0.25 (≈ 0.295 µM) | <0.06 | <0.06 | <0.06 | 1 (≈ 1.18 µM) |  |  |  |  | 
12 | CCC1OC(=O)C(C)C(=O)C(C)C(OC2OC(C)CC(N(C)C)C2O)C(C)(OC)CC(C)C(=O)C(C)C2N(C3CN(S(=O)(=O)c4ccc5c(c4)CC(=O)N5)C3)C(=O)OC12C (centres unmarked) [Example 3.42, 3-descladinosyl-11,12-dideoxy-6-O-methyl-3-oxo-12,11-(oxycarbonyl-(1-(2-oxoindoline-5-sulfonyl)-azetidin-3-yl)-imino)-erythromycin A] | 2 (≈ 2.32 µM) | 0.5 (≈ 0.579 µM) | <0.06 | <0.06 | 2 (≈ 2.32 µM) |  |  |  |  | 
13 | CC[C@H]1OC(=O)[C@H](C)C(=O)[C@H](C)[C@@H](O[C@@H]2O[C@H](C)C[C@H](N(C)C)[C@H]2O)[C@](C)(OC)C[C@@H](C)C(=O)[C@H](C)[C@H]2N(CC3(O)CN(S(=O)(=O)c4c(C)n[nH]c4C)C3)C(=O)O[C@]12C [7.15] |  |  |  |  |  | 2 (≈ 2.34 µM) | 4 (≈ 4.67 µM) | >64.00 | <0.06 | >64.00
14 | CCC1OC(=O)C(C)C(=O)C(C)C(OC2OC(C)CC(N(C)C)C2O)C(C)(OC)CC(C)C(=O)C(C)C2N(C3CN(S(=O)(=O)c4ccc(C#N)cc4)C3)C(=O)OC12C (centres unmarked) [Example 3.11, 3-descladinosyl-11,12-dideoxy-6-O-methyl-3-oxo-12,11-(oxycarbonyl-(1-(4-cyanobenzenesulfonyl)-azetidin-3-yl)-imino)-erythromycin A] | 0.25 (≈ 0.3 µM) | 0.5 (≈ 0.6 µM) | <0.06 | <0.06 | 8 (≈ 9.6 µM) |  |  |  |  | 
15 | CCC1OC(=O)C(C)C(=O)C(C)C(OC2OC(C)CC(N(C)C)C2O)C(C)(OC)CC(C)C(=O)C(C)C2N(C3CN(Cc4cccc5nccnc45)C3)C(=O)OC12C (centres unmarked) [Example 1.12, 3-descladinosyl-11,12-dideoxy-6-O-methyl-3-oxo-12,11-(oxycarbonyl-(1-((quinoxalin-8-yl)-methyl)-azetidin-3-yl)-imino)-erythromycin A] | 0.25 (≈ 0.309 µM) | <0.06 | <0.06 | <0.06 | 2 (≈ 2.47 µM) |  |  |  |  | 
16 | CCC1OC(=O)C(C)C(=O)C(C)C(OC2OC(C)CC(N(C)C)C2O)C(C)(OC)CC(C)C(=O)C(C)C2N(C3CN(C(=O)c4ccc(-c5noc(C)n5)cc4)C3)C(=O)OC12C (centres unmarked) [Example 2.12] | 32 (≈ 37.5 µM) | 0.25 (≈ 0.293 µM) | 2 (≈ 2.34 µM) | <0.06 | >64.00 |  |  |  |  | 
17 | CCC1OC(=O)C(C)C(=O)C(C)C(OC2OC(C)CC(N(C)C)C2O)C(C)(OC)CC(C)C(=O)C(C)C2N(C3CN(S(=O)(=O)c4c(Cl)nc5sccn45)C3)C(=O)OC12C (centres unmarked) [Example 3.97, 3-descladinosyl-11,12-dideoxy-6-O-methyl-3-oxo-12,11-(oxycarbonyl-(1-(6-chloroimidazo[2,1-b]thiazole-5-sulfonyl)-azetidin-3-yl)-imino)-erythromycin A] | 0.125 (≈ 0.141 µM) | <0.063 | 0.25 (≈ 0.281 µM) |  | 1 (≈ 1.13 µM) |  |  |  |  | 
18 | CCC1OC(=O)C(C)C(=O)C(C)C(OC2OC(C)CC(N(C)C)C2O)C(C)(OC)CC(C)C(=O)C(C)C2N(C3CN(Cc4ccc(-n5ccnc5)cc4)C3)C(=O)OC12C (centres unmarked) [Example 1.57, 4-(imidazol-1-yl)benzyl] | 1 (≈ 1.21 µM) | <0.06 | <0.06 |  | 64 (≈ 77.7 µM) |  |  |  |  | 
19 | CCC1OC(=O)C(C)C(=O)C(C)C(OC2OC(C)CC(N(C)C)C2O)C(C)(OC)CC(C)C(=O)C(C)C2N(C3CN(Cc4cccc(-n5ccnn5)c4)C3)C(=O)OC12C (centres unmarked) [Example 1.56, 3-([1,2,3]triazol-1-yl)benzyl] | 1 (≈ 1.21 µM) | <0.06 | <0.06 |  | >64.00 |  |  |  |  | 
20 | CCC1OC(=O)C(C)C(=O)C(C)C(OC2OC(C)CC(N(C)C)C2O)C(C)(OC)CC(C)C(=O)C(C)C2N(C3CN(Cc4c(F)cccc4F)C3)C(=O)OC12C (centres unmarked) [Example 1.87, 3-descladinosyl-11,12-dideoxy-6-O-methyl-3-oxo-12,11-(oxycarbonyl-(1-(1,3-difluorobenzene-2-methyl)-azetidin-3-yl)-imino)erythromycin A] | 0.5 (≈ 0.63 µM) |  |  | <0.063 | 8 (≈ 10.1 µM) |  |  |  |  | 
